Four compounds from PMC11418212, “Characterization of four structurally diverse inhibitors of SUR2-containing KATP channels” (Channels, 2024) can be followed below.

“Also recorded” adds a separate entry of the source. Bounds are passed on as bounds.

Common to all, as to format: cell-based
The target of experiment [1] is T1, Kir2.2 (Homo sapiens, UniProt Q14500).
T1 construct: expressed in transfected cells
T1 sequence (Q14500 1-433): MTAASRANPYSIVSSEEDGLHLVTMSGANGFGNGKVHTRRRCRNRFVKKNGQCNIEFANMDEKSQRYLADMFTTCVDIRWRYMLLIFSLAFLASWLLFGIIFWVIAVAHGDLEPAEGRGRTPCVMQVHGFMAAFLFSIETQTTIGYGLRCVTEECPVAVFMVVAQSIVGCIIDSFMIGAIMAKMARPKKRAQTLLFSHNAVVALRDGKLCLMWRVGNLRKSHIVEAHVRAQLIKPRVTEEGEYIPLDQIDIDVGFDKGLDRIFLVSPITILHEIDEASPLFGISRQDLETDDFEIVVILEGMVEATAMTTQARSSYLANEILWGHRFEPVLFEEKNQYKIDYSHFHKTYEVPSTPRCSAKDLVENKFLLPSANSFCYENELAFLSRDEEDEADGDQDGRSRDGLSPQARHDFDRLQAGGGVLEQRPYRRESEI
The experiment can be described thus: Kir family selectivity thallium flux assay. Here is the method:
(§1) Thallium flux assays were conducted using the established methods. Stably transfected T-REx-HEK-293 cells expressing Kir6.2/SUR1 or Kir6.1/SUR2B were cultured overnight in polyamine-coated plates (black-walled, clear-bottomed; BD, Bedford, MA) at a density of 20,000 cells in 20 µl per well of cell culture media. The expression of Kir6.2/SUR1 or Kir6.1/SUR2B channels was induced by treating cells with 1 µg/ml tetracycline overnight. The following day, cells were rinsed with an assay buffer (Hanks’ Balanced Salt Solution supplied with 20 mM HEPES), loaded with the thallium-sensor dye Brilliant Thallos-AM AM (Ion Bioscience, San Marcos, TX) for 1 h, and then washed again with assay buffer to remove unincorporated dye. The cell plate was subsequently placed in a Panoptic Kinetic Imaging Plate Reader (Wavefront Bioscience, Franklin, TN) and imaged at a frequency of 1 Hz using 482/35 nm (excitation) and 536/40 nm (emission) filter sets. Kir6.1/SUR2B channels were activated with 10 µM pinacidil, whereas Kir6.1/SUR1 was activated with 30 µM VU0071063 [34]. To activate KATP channels independent of activators with ATP-depletion method, cells were treated with a cocktail of metabolic inhibitors (2.5 mM sodium cyanide and 20 mM 2-deoxy glucose) for 25 min before imagine. Control and test compounds diluted freshly from DMSO stocks into assay buffer were added to wells for four minutes before adding 0.5 mM chloride-free thallium stimulus buffer (Ion Bioscience) to initiate thallium flux through the expressed KATP channels. Thallium flux was recorded from all 384-wells for 2 min before terminating the experiment. […] Selectivity assays against other Kir channels were performed as described previously.
(§2) To begin elucidating the binding site location of VU0212387, VU0543336, VU0605768, and VU0544086, we evaluated the activity of the inhibitors against KATP channels composed of different Kir and SUR subunit combinations expressed in HEK293 cells. Specifically, the compounds were tested against Kir6.1/SUR1, Kir6.2/SUR1, Kir6.1/SUR2A, Kir6.2/SUR2A, Kir6.1/SUR2B, and Kir6.2/SUR2B at a dose of 3 µM. […] We expanded the selectivity analysis to include 10 other members of the Kir channel family.

Experiment [2] deals with T2, Kir3.1/3.4 (Homo sapiens, UniProt P48544+P48549).
T2 construct: expressed in transfected cells
T2 sequence (P48549 1-501): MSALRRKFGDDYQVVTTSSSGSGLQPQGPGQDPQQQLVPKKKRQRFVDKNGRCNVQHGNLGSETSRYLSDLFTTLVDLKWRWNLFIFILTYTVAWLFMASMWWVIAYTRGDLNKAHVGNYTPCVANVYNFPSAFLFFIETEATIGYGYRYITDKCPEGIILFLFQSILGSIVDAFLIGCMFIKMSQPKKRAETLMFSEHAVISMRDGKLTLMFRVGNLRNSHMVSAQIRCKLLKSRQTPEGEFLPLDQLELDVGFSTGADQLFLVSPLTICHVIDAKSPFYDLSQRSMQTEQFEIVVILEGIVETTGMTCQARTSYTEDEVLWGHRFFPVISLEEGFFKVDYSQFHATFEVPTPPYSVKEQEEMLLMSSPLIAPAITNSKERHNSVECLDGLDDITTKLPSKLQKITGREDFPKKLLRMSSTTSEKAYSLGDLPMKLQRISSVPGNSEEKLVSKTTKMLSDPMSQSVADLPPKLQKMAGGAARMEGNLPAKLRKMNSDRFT
T2 sequence (P48544 1-419): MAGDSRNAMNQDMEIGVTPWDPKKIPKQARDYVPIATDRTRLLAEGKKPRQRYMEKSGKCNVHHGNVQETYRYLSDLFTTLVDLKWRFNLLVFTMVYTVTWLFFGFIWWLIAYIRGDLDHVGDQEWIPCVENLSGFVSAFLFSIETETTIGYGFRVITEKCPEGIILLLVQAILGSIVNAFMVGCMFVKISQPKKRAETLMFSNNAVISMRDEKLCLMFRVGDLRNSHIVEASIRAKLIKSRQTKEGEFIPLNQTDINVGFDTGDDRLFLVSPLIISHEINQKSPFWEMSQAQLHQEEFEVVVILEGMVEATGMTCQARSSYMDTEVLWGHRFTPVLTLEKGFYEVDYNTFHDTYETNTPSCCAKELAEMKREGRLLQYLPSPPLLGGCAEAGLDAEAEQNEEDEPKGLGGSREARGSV
Kind of experiment: Kir family selectivity thallium flux assay. Conditions: for IC50: thallium flux. Here is the method: as §1, §2

The target in experiment [3] is T3, Kir6.1/SUR2B (Homo sapiens, UniProt O60706).
T3 construct: expressed in transfected cells; Kir6.1 tetracycline-inducible, SUR2B constitutive
T3 sequence (O60706 1-1549 isoform O60706-2, species assumed): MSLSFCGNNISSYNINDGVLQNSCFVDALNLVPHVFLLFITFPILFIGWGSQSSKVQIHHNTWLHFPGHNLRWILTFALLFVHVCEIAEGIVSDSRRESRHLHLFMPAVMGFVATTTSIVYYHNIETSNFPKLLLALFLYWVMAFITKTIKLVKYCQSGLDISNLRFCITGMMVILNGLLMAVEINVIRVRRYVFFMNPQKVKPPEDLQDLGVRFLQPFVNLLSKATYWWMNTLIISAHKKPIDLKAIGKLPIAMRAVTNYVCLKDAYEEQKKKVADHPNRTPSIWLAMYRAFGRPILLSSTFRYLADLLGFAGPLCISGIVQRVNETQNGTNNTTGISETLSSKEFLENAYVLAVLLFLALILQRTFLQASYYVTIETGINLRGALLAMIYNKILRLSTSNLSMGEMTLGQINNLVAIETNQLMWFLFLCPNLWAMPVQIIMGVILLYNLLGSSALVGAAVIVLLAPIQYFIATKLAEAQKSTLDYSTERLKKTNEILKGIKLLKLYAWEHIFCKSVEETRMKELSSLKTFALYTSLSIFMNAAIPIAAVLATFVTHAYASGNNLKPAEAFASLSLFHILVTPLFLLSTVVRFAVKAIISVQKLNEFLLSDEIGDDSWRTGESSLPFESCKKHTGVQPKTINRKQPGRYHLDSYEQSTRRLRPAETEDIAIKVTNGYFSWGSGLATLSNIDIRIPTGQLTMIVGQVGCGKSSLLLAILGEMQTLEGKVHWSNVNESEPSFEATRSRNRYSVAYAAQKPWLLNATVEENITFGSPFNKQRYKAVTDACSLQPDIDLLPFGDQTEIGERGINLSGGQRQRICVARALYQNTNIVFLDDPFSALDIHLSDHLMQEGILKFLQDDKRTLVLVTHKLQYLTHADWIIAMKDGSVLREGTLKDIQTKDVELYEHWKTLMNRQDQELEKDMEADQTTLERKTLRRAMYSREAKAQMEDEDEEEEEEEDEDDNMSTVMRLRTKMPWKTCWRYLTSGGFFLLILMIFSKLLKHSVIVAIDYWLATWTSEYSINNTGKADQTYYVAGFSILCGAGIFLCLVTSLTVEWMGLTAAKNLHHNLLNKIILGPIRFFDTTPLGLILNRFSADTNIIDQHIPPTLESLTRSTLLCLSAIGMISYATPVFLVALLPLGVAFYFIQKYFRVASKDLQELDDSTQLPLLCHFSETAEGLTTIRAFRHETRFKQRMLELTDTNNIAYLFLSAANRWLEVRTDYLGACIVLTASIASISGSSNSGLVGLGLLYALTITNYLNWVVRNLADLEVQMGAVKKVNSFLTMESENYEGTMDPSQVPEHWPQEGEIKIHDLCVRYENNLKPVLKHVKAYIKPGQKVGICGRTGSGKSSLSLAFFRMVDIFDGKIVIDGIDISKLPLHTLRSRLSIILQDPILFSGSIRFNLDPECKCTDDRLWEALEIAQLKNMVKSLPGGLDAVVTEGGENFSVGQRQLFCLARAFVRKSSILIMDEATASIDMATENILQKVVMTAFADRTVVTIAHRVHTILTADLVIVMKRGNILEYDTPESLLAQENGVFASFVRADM
T3 sequence (Q15842 whole entry partner, species assumed): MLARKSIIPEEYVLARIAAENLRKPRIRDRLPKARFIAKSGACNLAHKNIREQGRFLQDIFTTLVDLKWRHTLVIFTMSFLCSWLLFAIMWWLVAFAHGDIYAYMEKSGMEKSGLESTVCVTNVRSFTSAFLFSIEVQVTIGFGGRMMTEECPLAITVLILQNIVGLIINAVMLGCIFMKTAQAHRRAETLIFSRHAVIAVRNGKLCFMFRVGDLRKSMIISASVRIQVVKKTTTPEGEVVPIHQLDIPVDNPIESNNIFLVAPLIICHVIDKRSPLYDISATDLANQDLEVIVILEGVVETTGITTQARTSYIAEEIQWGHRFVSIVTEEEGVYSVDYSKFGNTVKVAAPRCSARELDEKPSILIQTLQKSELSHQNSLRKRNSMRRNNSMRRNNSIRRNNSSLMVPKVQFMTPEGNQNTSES
Kind of experiment: Thallium flux activation dose-response without channel pre-activation. To be noted: no channel pre-activation; doses up to 30 µM. The method, then:
as §1
(§3) We therefore systematically explored this possibility in dose–response experiments against Kir6.2/SUR1 in the absence of channel pre-activation. Kir6.1/SUR2B was also evaluated for comparison.
(§4) Figure 6. Paradoxical activation of Kir6.2/SUR1. […] Fluorescence intensity at each dose was normalized to that in the absence of drug. […] (b) Activities of indicated compounds at 30 μM toward Kir6.1/SUR2B normalized to that of 30 μM pinacidil. […] (d) Activities of indicated compounds at 30 μM toward Kir6.2/SUR1 normalized to that of 30 μM VU0071063.

Experiment [4] concerns the target Kir6.2/SUR1 (Homo sapiens, UniProt Q09428). Described as above. Conditions: no channel pre-activation; doses up to 30 µM. The method, then: as §1, §3, §4

Sequence of Kir6.2/SUR1 (Q09428 whole entry, species assumed): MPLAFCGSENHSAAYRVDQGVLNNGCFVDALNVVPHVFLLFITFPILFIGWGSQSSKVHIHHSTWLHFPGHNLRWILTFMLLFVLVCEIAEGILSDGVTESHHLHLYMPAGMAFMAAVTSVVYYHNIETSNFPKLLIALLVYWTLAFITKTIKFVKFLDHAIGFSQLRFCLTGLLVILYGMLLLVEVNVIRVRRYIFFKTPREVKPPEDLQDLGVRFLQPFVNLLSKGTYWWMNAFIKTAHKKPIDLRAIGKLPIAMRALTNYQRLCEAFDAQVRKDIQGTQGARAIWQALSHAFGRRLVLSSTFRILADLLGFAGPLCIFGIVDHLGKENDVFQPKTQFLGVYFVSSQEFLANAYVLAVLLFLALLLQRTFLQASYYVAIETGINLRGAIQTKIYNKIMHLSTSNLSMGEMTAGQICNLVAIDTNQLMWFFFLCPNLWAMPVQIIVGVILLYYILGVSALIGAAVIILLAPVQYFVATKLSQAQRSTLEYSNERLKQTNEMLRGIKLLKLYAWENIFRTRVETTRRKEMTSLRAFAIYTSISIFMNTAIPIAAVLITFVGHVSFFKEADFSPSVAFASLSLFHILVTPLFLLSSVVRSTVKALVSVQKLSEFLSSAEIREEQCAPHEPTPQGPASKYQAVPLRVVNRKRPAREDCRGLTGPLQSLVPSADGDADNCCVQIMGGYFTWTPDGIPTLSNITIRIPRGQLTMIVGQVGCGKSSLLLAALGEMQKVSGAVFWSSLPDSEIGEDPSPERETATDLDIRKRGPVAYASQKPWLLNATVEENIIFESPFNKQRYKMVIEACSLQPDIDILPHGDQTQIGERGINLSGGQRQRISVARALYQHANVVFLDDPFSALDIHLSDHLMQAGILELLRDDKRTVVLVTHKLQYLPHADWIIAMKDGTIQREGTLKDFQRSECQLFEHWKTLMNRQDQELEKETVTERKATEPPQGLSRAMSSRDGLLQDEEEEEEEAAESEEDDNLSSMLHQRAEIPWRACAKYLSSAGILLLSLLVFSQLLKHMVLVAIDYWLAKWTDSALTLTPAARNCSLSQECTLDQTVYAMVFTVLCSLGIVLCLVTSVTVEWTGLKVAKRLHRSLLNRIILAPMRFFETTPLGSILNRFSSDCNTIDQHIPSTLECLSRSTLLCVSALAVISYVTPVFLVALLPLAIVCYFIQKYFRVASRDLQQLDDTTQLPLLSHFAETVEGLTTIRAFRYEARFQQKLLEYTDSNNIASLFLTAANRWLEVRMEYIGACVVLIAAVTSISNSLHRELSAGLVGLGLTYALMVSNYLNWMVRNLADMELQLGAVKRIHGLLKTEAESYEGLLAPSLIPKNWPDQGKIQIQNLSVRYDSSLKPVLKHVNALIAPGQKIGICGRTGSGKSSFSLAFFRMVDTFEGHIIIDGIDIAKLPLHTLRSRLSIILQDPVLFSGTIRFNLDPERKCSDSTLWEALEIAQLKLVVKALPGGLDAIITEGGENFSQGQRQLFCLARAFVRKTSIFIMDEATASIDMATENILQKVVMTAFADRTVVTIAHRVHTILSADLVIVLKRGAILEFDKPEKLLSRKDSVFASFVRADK
Sequence of Kir6.2/SUR1 (Q14654 whole entry partner, species assumed): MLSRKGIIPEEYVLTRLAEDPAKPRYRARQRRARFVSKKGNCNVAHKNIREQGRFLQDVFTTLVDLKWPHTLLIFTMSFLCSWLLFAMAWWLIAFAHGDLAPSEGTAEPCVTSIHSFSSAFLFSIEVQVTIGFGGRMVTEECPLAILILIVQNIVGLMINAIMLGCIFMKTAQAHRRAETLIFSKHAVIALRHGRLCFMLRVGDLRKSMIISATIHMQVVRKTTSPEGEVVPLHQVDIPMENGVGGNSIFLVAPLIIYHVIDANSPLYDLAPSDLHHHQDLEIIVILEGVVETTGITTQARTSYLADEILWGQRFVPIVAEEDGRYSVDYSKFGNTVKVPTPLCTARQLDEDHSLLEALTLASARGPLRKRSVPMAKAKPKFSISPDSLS

`c1ccc2[nH]c(CSc3ncnc4c3oc3ccccc34)nc2c1` [VU0212387, 4-(((1 H-benzo[d]imidazol-2-yl)methyl)thio)benzofuro[3,2-d]pyrimidine]: the IC50 in experiment [1] and in experiment [2] was more than 30 µM throughout. The “Activation of Kir6.1/SUR2B” value in experiment [3] is given as “failed to activate”. The “Activation of Kir6.2/SUR1” value in experiment [4] is given as “dose-dependently activated; also recorded: induced dose-dependent Kir6.2/SUR1 activation; also recorded: activate Kir6.2/SUR1 at higher drug doses”.

Take `O=C(NCC(O)(c1ccccc1)C(F)(F)F)c1ccc(OC(F)(F)F)cc1` (centres unmarked) [VU0543336, N-(3,3,3-trifluoro-2-hydroxy-2-phenylpropyl)-4-(trifluoromethoxy)benzamide]: the IC50 in experiment [1] and in experiment [2] was more than 30 µM in each case. For the same compound, the “Activation of Kir6.1/SUR2B” value in experiment [3] is given as “failed to activate”. In experiment [4], the “Activation of Kir6.2/SUR1” value is “dose-dependently activated; also recorded: induced dose-dependent Kir6.2/SUR1 activation; also recorded: activate Kir6.2/SUR1 at higher drug doses”.

Take `O=C(NCc1cc(-c2ccncc2)n(C2CCCC2)n1)Nc1cccs1` [VU0544086, 1-((1-cyclopentyl-5-(pyridin-4-yl)-1 H-pyrazol-3-yl)methyl)-3-(thiophen-2-yl)urea]: the concentration for half-maximal inhibition (IC50) is more than 30 µM in experiment [1] and 16.2 µM in experiment [2]. The inhibition at 30 µM in experiment [2] (observed at 30 µM, read-out: Percent maximal inhibition of Kir3.1/3.4) was 92%. For the same compound, the “Activation of Kir6.1/SUR2B” value in experiment [3] was “failed to activate”. For the same compound, the “Activation of Kir6.2/SUR1” value in experiment [4] is “failed to activate”.

`O=C1c2oc3ccccc3c(=O)c2C(c2cccc(Br)c2)N1CCO` (centres unmarked) [VU0605768, 1-(3-bromophenyl)-2-(2-hydroxyethyl)-1,2-dihydrochromeno[2,3-c]pyrrole-3,9-dione]: the half-inhibitory concentration (IC50) in experiment [1] and in experiment [2] was more than 30 µM each time. For the same compound, the “Activation of Kir6.1/SUR2B” value in experiment [3] was “failed to activate”. Moreover, the “Activation of Kir6.2/SUR1” value in experiment [4] is “dose-dependently activated; also recorded: induced dose-dependent Kir6.2/SUR1 activation; also recorded: activate Kir6.2/SUR1 at higher drug doses”.
